Article PMC6751662, “Pharmacological and functional similarities of the human neuropeptide Y system in C. elegans challenges phylogenetic views on the FLP/NPR system” (Cell Communication and Signaling : CCS, 2019)
Ends that are not written are not given here.

How the values were obtained:
Y1R = target: T1, Y1R (Homo sapiens, UniProt P25929); experiment: IP accumulation assay, chimeric GαΔ6qi4myr, Y1R; assay type: cell-based; conditions: chimeric GαΔ6qi4myr co-transfected, transiently transfected HEK293 cells, mean of at least three independent experiments
T1 construct: expressed in transfected cells; host or cells: HEK293, transient
T1 sequence (P25929 1-384): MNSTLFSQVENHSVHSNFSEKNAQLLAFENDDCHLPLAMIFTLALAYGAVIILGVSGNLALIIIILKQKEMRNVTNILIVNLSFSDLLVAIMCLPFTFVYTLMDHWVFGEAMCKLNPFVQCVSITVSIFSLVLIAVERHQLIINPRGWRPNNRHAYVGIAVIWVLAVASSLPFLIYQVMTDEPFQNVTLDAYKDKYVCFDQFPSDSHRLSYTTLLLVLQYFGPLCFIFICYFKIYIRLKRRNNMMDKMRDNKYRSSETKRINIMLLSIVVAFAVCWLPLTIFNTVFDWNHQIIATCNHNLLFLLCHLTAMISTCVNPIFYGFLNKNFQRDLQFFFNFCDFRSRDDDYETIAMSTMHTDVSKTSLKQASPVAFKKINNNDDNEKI
Method: (§1) For measuring IP accumulation, HEK293 cells grown to 70–80% confluency in 6-well plates were transiently co-transfected using Metafectene Pro (2.5 μl/μg DNA; Biontex) with plasmids containing receptor and/or mock (empty pcDNA3.1) (for endogenous Gq-coupling) using 4 μg total DNA in a ratio of 3:1 following the manufacturer’s instructions. For testing Gα16- and GαΔ6qi4myr-coupling, plasmids encoding the corresponding Gα protein were co-transfected instead of mock. Gα16 is naturally promiscuous and stimulates the phospholipase C (PLC) pathway leading to IP production, while the exchange of the C-terminal four amino acids of Gαq for the corresponding residues of Gαi1 in the chimeric GαΔ6qi4myr confers the ability to couple to Gi/o protein-preferring receptors but still stimulate PLC, thus specifically redirecting downstream cellular signaling. 16 h post transfection, the cells were seeded into white 384-well plates at a density of 20,000 cells/well. Media was removed 24 h later and the cells were incubated with the indicated concentration of peptides for 1 h in HBSS + 20 mM LiCl. IP accumulation was measured with the HTRF-based IP-One Gq kit (Cisbio) on a microplate reader (Tecan Spark).
(§2) For in vitro activation, data is presented as mean ± SEM of at least three independent experiments conducted in technical triplicate. […] For the C. elegans NPRs, we considered the strongest response elicited by any of the peptides downstream of a particular receptor as the receptor’s maximal signal. This may or may not be the biological maximum that can be reached by the ‘true’ endogenous agonist. For the human receptors, the response to the established endogenous agonist reflected the maximal signal.

Y4R = target: T2, Y4R (Homo sapiens, UniProt P50391); experiment: IP accumulation assay, chimeric GαΔ6qi4myr, Y4R; assay type: cell-based; conditions: chimeric GαΔ6qi4myr co-transfected, transiently transfected HEK293 cells, mean of at least three independent experiments
T2 construct: expressed in transfected cells; host or cells: HEK293, transient
T2 sequence (P50391 whole entry): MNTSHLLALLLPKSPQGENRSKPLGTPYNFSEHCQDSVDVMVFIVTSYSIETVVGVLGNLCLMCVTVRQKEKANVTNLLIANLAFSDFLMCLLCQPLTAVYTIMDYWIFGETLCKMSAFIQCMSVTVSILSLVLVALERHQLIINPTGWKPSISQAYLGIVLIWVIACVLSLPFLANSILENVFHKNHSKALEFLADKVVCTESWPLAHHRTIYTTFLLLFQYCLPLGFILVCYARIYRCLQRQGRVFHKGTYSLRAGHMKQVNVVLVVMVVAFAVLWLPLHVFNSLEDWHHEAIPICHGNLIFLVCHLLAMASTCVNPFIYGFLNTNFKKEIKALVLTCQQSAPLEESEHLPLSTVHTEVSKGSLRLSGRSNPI
Method: as §1, §2

Y5R = target: T3, Y5R (Homo sapiens, UniProt Q15761); experiment: IP accumulation assay, chimeric GαΔ6qi4myr, Y5R; assay type: cell-based; conditions: chimeric GαΔ6qi4myr co-transfected, transiently transfected HEK293 cells, mean of at least three independent experiments
T3 construct: expressed in transfected cells; host or cells: HEK293, transient
T3 sequence (Q15761 1-445): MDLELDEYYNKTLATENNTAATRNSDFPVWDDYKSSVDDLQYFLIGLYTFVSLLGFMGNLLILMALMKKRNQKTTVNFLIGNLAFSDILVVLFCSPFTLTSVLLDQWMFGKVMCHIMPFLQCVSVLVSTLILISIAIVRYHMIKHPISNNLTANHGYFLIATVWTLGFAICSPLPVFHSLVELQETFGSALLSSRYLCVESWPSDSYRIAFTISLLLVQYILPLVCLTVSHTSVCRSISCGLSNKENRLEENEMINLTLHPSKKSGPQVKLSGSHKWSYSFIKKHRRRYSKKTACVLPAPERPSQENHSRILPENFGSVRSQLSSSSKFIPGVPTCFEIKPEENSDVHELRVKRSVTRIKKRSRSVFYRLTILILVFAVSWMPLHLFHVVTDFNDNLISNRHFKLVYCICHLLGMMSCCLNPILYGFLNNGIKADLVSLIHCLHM
Method: as §1, §2

PrRPR = target: T4, PrRPR (Homo sapiens, UniProt P49683); experiment: IP accumulation assay, endogenous Gαq coupling, PrRPR; assay type: cell-based; conditions: transiently transfected HEK293 cells, mean of at least three independent experiments
T4 construct: expressed in transfected cells; host or cells: HEK293, transient
T4 sequence (P49683 1-370): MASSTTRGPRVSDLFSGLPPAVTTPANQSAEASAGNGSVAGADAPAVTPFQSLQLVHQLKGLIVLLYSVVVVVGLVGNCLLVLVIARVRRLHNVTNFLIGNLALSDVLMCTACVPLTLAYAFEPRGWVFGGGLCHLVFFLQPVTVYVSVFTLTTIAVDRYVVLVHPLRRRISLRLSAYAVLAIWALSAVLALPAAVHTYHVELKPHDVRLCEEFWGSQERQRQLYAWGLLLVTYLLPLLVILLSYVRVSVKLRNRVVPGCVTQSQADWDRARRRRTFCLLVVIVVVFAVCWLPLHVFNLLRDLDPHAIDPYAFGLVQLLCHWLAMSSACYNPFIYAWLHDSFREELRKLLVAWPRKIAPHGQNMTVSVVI
Method: as §1, §2

[1] = Solubility of crude peptides in RP-HPLC purification solvents; assay type: physicochemical; conditions: for solubility of crude peptide: H2O + 0.1% TFA / acetonitrile + 0.08% TFA (RP-HPLC purification conditions); for solubility of crude peptide at basic pH: 10 mM (NH4)2CO3, pH 8.5, used for purification
Method: C-terminally amidated peptides were synthesized in 15 μmol scale by solid-phase peptide synthesis following the Fmoc/tert-butyl strategy (reviewed in [18]) on Rink amide resin using an automated Syro II peptide synthesizer (MultiSynTech). Automated coupling reactions were performed as double couplings using 8 eq Nα-protected amino acid, activated in situ with equimolar amounts of Oxyma and […] in dimethylformamide (DMF) for 30 min. Automated Fmoc deprotection was carried out with 40% (v/v) piperidine in DMF for 3 min and 20% (v/v) piperidine in DMF for 10 min. Reactive side chains of amino acids were protected by tert-butyl (tBu for Tyr, Ser, Asp, Glu, Thr), trityl (Trt for Asn, Gln, His), 2,2,4,6,7-pentamethyldihydrobenzofuran-5-sulfonyl (Pbf for Arg) and tert-butyloxycarbonyl (Boc for Lys). Peptides were cleaved off the resin using trifluoroacetic acid (TFA)/H2O/triisopropylsilane (90/5/5, v/v/v) for 2.5 h at room temperature and precipitated in ice cold diethyl ether. All peptides were purified to > 95% purity by RP-HPLC (Shimadzu) using a Phenomenex Jupiter 10 μm Proteo 90 Å (C12) column. For most peptides, linear gradients of H2O + 0.1% trifluoroacetic acid (TFA) (eluent A) and acetonitrile (ACN) + 0.08% TFA (eluent B) were applied at a flow rate of 10 ml/minute. […] FLP-27, FLP-33, and FLP-34 were solubilized by ultrasonication at 50 °C for 10 min and subsequently purified under standard solvent conditions used pre-heated HPLC systems. […] Peptide identity was verified by matrix-assisted laser desorption/time of flight (MALDI-ToF; Ultraflex III MALDI-ToF/ToF, Bruker Daltonics) mass spectrometry, and peptide purity was evaluated with analytical RP-HPLC.

Row | Substance | IP accumulation, x-fold of basal (mean), Y1R (Y1R; 0.1 µM peptide) | IP accumulation, x-fold of basal (mean), Y1R (Y1R; 10 µM peptide) | IP accumulation, x-fold of basal (mean), Y4R (Y4R; 0.1 µM peptide) | IP accumulation, x-fold of basal (mean), Y4R (Y4R; 10 µM peptide) | IP accumulation, x-fold of basal (mean), Y5R (Y5R; 0.1 µM peptide) | IP accumulation, x-fold of basal (mean), Y5R (Y5R; 10 µM peptide) | IP accumulation, x-fold of basal (mean), PrRPR# (PrRPR; 0.1 µM peptide) | IP accumulation, x-fold of basal (mean), PrRPR# (PrRPR; 10 µM peptide) | solubility of crude peptide [1] | solubility of crude peptide at basic pH [1]
1 | TPDINPAWYASRGIRPVGRF-NH2 [PrRP20, human prolactin-releasing peptide, 20 residues, reference compound] | 0.82 x-fold of basal | 2.68 x-fold of basal | 0.80 x-fold of basal | 0.89 x-fold of basal | 1.01 x-fold of basal | 5.90 x-fold of basal | 26.01 x-fold of basal | 27.38 x-fold of basal |  | 
2 | APKPKFIRF-NH2 [FLP-5-1, C. elegans FMRFamide-like peptide, C-terminally amidated, synthesized by SPPS] | 1.02 x-fold of basal | 1.69 x-fold of basal | 1.38 x-fold of basal | 1.28 x-fold of basal | 0.80 x-fold of basal | 5.88 x-fold of basal | 1.20 x-fold of basal | 1.41 x-fold of basal |  | 
3 | GLGPRPLRF-NH2 [FLP-21] |  |  |  |  |  |  |  |  | partly insoluble | improved solubility at basic pH
4 | PrRP31 [reference compound] | 0.87 x-fold of basal | 1.86 x-fold of basal | 0.84 x-fold of basal | 1.10 x-fold of basal | 0.70 x-fold of basal | 9.64 x-fold of basal | 25.49 x-fold of basal | 25.47 x-fold of basal |  | 
5 | AGSDPNFLRF-NH2 [FLP-1-2, C. elegans FMRFamide-like peptide, C-terminally amidated, synthesized by SPPS] | 1.25 x-fold of basal | 3.68 x-fold of basal | 1.28 x-fold of basal | 1.45 x-fold of basal | 1.33 x-fold of basal | 1.17 x-fold of basal | 1.04 x-fold of basal | 1.27 x-fold of basal |  | 
6 | ASPSFIRF-NH2 [FLP-4-2, C. elegans FMRFamide-like peptide, C-terminally amidated, synthesized by SPPS] | 2.37 x-fold of basal | 1.93 x-fold of basal | 1.45 x-fold of basal | 1.04 x-fold of basal | 1.14 x-fold of basal | 1.29 x-fold of basal | 0.85 x-fold of basal | 0.86 x-fold of basal |  | 
7 | APLEPVYPGDNATPEQMAQYAADLRRYINMLTRPRY-NH2 [PP, human pancreatic polypeptide, reference compound] | 17.01 x-fold of basal | 25.89 x-fold of basal | 4.73 x-fold of basal | 4.61 x-fold of basal | 16.39 x-fold of basal | 17.90 x-fold of basal | 0.99 x-fold of basal | 1.01 x-fold of basal |  | 
8 | RGPSGPLRF-NH2 [FLP-15-2] |  |  |  |  |  |  |  |  | partly insoluble | improved solubility at basic pH
9 | SEVPGVLRF-NH2 [FLP-18-5] |  |  |  |  |  |  |  |  | partly insoluble | improved solubility at basic pH

Further lines, with some results ahead:

Row | IP accumulation, x-fold of basal (mean), Y1R (Y1R; 0.1 µM peptide) | IP accumulation, x-fold of basal (mean), Y1R (Y1R; 10 µM peptide) | IP accumulation, x-fold of basal (mean), Y4R (Y4R; 0.1 µM peptide) | IP accumulation, x-fold of basal (mean), Y4R (Y4R; 10 µM peptide) | IP accumulation, x-fold of basal (mean), Y5R (Y5R; 0.1 µM peptide) | IP accumulation, x-fold of basal (mean), Y5R (Y5R; 10 µM peptide) | IP accumulation, x-fold of basal (mean), PrRPR# (PrRPR; 0.1 µM peptide) | IP accumulation, x-fold of basal (mean), PrRPR# (PrRPR; 10 µM peptide) | Substance | solubility of crude peptide [1] | solubility of crude peptide at basic pH [1]
10 | 1.32 x-fold of basal | 2.75 x-fold of basal | 1.03 x-fold of basal | 1.42 x-fold of basal | 0.87 x-fold of basal | 3.57 x-fold of basal | 1.06 x-fold of basal | 1.91 x-fold of basal | TSGPLGNLAEELNGYSRKKGGFSFRF-NH2 [QRFP26, human pyroglutamylated RFamide peptide, 26 residues, reference compound] |  | 
11 |  |  |  |  |  |  | 0.93 x-fold of basal | 0.91 x-fold of basal | EASAFGDIIGELKGKGLGGRMRF-NH2 [FLP-27, NPY-like C. elegans FLP with C-terminal RxRF/Ya signature] | partly insoluble | 
12 |  |  |  |  |  |  | 0.91 x-fold of basal | 0.88 x-fold of basal | APLEGFEDMSGFLRTIDGIQKPRF-NH2 [FLP-33, NPY-like C. elegans FLP with C-terminal RxRF/Ya signature] | partly insoluble | 
